Assay results taken from PMC6934184, “Selective DNA-PKcs inhibition extends the therapeutic index of localized radiotherapy and chemotherapy” (The Journal of Clinical Investigation, 2019).

Target: T1, CSNK1A1 (CK1 alpha 1) (Homo sapiens, UniProt P48729)
T1 construct: purchased Thermo Fisher Scientific (Life Technologies) SelectScreen
Assay: SelectScreen Z'LYTE
Type: biochemical
Method in brief: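 SelectScreen broad panel; activity (Z'LYTE, Adapta) plus binding formats. ATP: Km app for CSF1R Z'LYTE; 10 for CAMK1 Adapta. Readout = % per kinase.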

T1 sequence (P48729 whole entry): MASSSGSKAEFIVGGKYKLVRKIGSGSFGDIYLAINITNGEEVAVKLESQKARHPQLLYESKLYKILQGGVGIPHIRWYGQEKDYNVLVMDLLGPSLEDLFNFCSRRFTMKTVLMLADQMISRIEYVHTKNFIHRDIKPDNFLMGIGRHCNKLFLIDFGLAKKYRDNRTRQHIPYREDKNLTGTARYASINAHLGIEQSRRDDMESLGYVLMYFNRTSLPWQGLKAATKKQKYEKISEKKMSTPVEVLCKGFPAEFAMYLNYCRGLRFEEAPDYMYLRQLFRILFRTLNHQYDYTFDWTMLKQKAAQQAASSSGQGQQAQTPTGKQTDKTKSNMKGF

CN(C(=O)CN1CCOCC1)c1ccc2sc3c(-c4cccc5c(=O)cc(N6CC7CCC(C6)O7)oc45)cccc3c2c1 [NU5455]
inhibition at 1 µM: 0.3%
